# Assay results taken from ChEMBL document CHEMBL4020772, “Alkaloids from aerial parts of Houttuynia cordata and their anti-inflammatory activity” (Bioorg Med Chem Lett, 2017).
# Test system: RAW264.7
# Test: Antiinflammatory activity in mouse RAW264.7 cells assessed as reduction in LPS-induced NO production pretreated for 30 mins followed by LPS stimulation for 24 hrs by Griess assay
# Format: functional, cell-based
row,SMILES,IC50 [µM]
1,O=c1ccc2ccccc2[nH]1,> 10
2,COc1cc2c(cc1O)CC1c3c(cc(OC)c(OC)c3-2)CCN1C (configuration not stated),> 10
3,COc1c(O)cc2c3c1-c1ccccc1CC3N(C)CC2 (configuration not stated),> 10
4,COc1cc(CC2c3cc(O)c(OC)cc3CCN2C)ccc1O (configuration not stated),> 10
5,COc1c(O)cc2c3c1-c1ccccc1CC3NCC2 (configuration not stated),> 10
6,COc1cc2c(cc1O)CC1c3c(cc(OC)c(O)c3-2)CCN1C (configuration not stated),> 10
7,O=C(NC[C@@H](O)c1ccccc1)c1ccc(O)cc1,> 10
8,COc1cc2c(cc1O)CC1NCCc3cc(OC)c(OC)c-2c31 (configuration not stated),> 10
9,COc1cc2c(cc1O)CC1NCCc3cc(OC)c(O)c-2c31 (configuration not stated),> 10
10,COc1c(O)cc2c3c(cc4ccccc4c13)NC(=O)C2=O [NORARISTOLODIONE],> 10
11,COc1cc2c3c(c1OC)-c1ccccc1CC3NCC2 (configuration not stated) [NORNUCIFERINE],> 10

# More lines, now with the values ahead:
row,IC50 [µM],SMILES
1,> 10,C[S+]([O-])C[C@H]1O[C@@H](n2cnc3c(N)ncnc32)[C@H](O)[C@@H]1O (some centres not stated)
2,> 10,COCc1ccc(C=O)n1CCCC(=O)O
3,> 10,O=C(O)c1c[nH]c2ccccc12
4,> 10,O=C(NC[C@@H](O[C@@H]1O[C@H](CO)[C@@H](O)[C@H](O)[C@H]1O)c1ccccc1)c1ccccc1
5,> 10,O[C@]12CO[C@@H](Cc3nccc4c3[nH]c3ccccc34)[C@H]1O2
6,> 10,O=C(NC[C@@H](O[C@@H]1O[C@H](CO)[C@@H](O)[C@H](O)[C@H]1O)c1ccccc1)c1cccc(O)c1
7,> 10,Nc1ncnc2c1ncn2[C@@H]1O[C@H](CO)[C@@H](O)[C@H]1O [ADENOSINE]
8,7,C[C@@H]1C[C@H]2[C@@H]3CCC4=CC(=O)C=C[C@]4(C)[C@@]3(F)[C@@H](O)C[C@]2(C)[C@@]1(O)C(=O)CO [DEXAMETHASONE]
9,> 10,NC(=O)c1cccnc1 [NIACINAMIDE]
10,8.7,OCc1ccc(-c2nccc3c2[nH]c2ccccc23)o1 [PERLOLYRIN]
11,> 10,O=c1ccn([C@@H]2O[C@H](CO)[C@@H](O)[C@H]2O)c(=O)[nH]1 [URIDINE]
